Earlier results as cited in patent publication US7723528B2, “Sulfur transfer reagents for oligonucleotide synthesis” (AM Chemicals LLC, priority 2008, dated 2010).

Settings: background statement

Hydrolytic stability | SMILES
rather low | CCOc1nc(=O)ss1 [EDITH, 3-ethoxy-1,2,4-dithiazoline-5-one]
rather low | O=C1SS(=O)(=O)c2ccccc21 [Beaucage reagent, 3H-1,2-benzodithiol-3-one-1,1-dioxide]
